Paper PMC7876106 (Scientific Reports, 2021)

Assays:
[1] = tested on: TERRA in LOX cells; experiment: TERRA levels by RNA dot blot and Northern blot in LOX cells; format: cell-based, human
[2] = tested on: telomere repeat DNA in LOX cells; experiment: Telomere length analysis (PFGE, Southern blot) of LOX cells; format: cell-based, human; conditions: TLA
Experimental: Genomic DNA was isolated from cells using a genomic DNA purification kit (Promega) and digested with AluI and MboI. Digested genomic DNA was purified by phenol/choloroform extraction and quantified using a Qubit 4 Fluorometer (Thermal Scientific). Equal amounts of digested DNA (5 μg) were separated by pulse-field gel electrophoresis (PFGE) performed with a 1% agarose gel at 6V/cm, switch times from 1 to 12s, 15 °C for 12h using CHEF-DRIII system (Bio-Rad). The DNA was transferred to GeneScreen Plus blotting membranes (Perkin-Elmer) and analyzed by Southern blot. The blots were hybridized with a 32P-labeled telomere repeat or […]
Alu probe at 42 °C overnight, then washed twice for 5 min each with 0.2 M wash buffer (0.2 M Na2HPO4 pH 7.2, 1 mM EDTA, and 2% SDS) at room temperature and once for 10 min with 0.1 M wash buffer at 42°C. Relative telomere-repeat signals were determined by Typhoon 9410 Imager and ImageQuant TL software (GE Healthcare). Signal intensity represents the percentage decrease of average telomere signals relative to dox (-) or PP control. […]
(§1) 100, 1 mM EDTA in 1x PBS) before immuno-staining. Primary antibodies were prepared in blocking solution at following dilutions: anti-53BP1 (1:500, IHC-00001; Bethyl Laboratories) and γH2AX (1:2,000, A300-081A; Bethyl Laboratories). After IF, cells were fixed in 4% paraformaldehyde in 1x PBS for 10 min, washed in 1x PBS, dehydrated in ethanol series (70%, 95%, 100%), and air-dried. Coverslips were denatured for 5 min at 80-85° C in hybridization mix [70% formamide, 10 mM Tris-HCl, pH 7.2, and 0.5% blocking solution (Roche)] containing telomeric PNA-Cy3-(CCCTAA)3 probe, and hybridization was continued for 2 hrs at room temperature in the dark moisturized chambers. Coverslips were washed twice for 15 min each with 70% formamide, 10 mM Tris-HCl (pH 7.2), and 0.1% BSA, and followed by three washes for 5 min each with 0.15 M NaCl, 0.1 M Tris-HCl (pH 7.2), and 0.08% Tween-20. Nuclei were counterstained with 0.1 µg/ml DAPI in blocking solution and coverslips mounted with VectorShield (Vector Laboratories). RNA FISH was performed as previously described 1.
Images were captured with a 100x lens on a Nikon E600 Upright microscope (Nikon

[3] = molecular target: EBNA1 G4 RNA; experiment: FP assay, compound binding to EBNA1 G4 RNA
Experimental: (§2) All the nucleic acids, peptides and chemicals were dissolved in buffer containing 20 mM HEPES pH7.5, 150 mM salt (KCl, NaCl, LiCl) at the stock concentration of 1 mM. For peptide and nucleic acid interactions, 25μL of each nucleic acids with a sequential twofold dilutions starting from 50 μM was added into each well of 96-well plate followed by adding 25μL of 10 nM FITC labeled TRF2 peptide. For compounds and nucleic acid interactions, 20μL of each compounds with a sequential twofold dilutions starting from 50 μM were added into each well of 96-well plate followed by adding 5μL of 20 ng/mL tRNA and 25μL of 10 nM FAM labeled nucleic acids. For inhibition assay, 5μL FITC labeled TRF2 GAR peptide (10 nM final concentration) and 10 μL oligos (5 μM final concentration) were mixed, followed by adding 5μL of each compound with a sequential twofold dilutions starting from 50 μM into each well of 384-well plate. All components were mixed thoroughly, and the plate was incubated at room temperature for 1 h before placing in an Envision Plate Reader for reading at 495/520 nm. All data curves were fitted using Prism 8.0.

[4] = molecular target: G4 TeloDNA; experiment: FP assay, compound binding to 5′ fluorescein-labeled TeloDNA
Experimental: as §2

[5] = tested on: TERRA (5'-fluorescein) (RNA, G4) UUAGGGUUAGGGUUAGGGUUAGGG; experiment: fluorescence polarization; conditions: 20 mM HEPES pH 7.5, room temperature; for binding: 150 mM salt (KCl, NaCl or LiCl; which not stated), tRNA competitor, dilutions from 50 μM compound
[6] = tested on: TeloDNA (5'-fluorescein) (DNA, G4) TTAGGGTTAGGGTTAGGGTTAGGG; experiment: fluorescence polarization; conditions: 20 mM HEPES pH 7.5, room temperature; for binding: 150 mM salt (KCl, NaCl or LiCl; which not stated), tRNA competitor, dilutions from 50 μM compound
[7] = molecular target: TERRA; experiment: FP assay, compound binding to 5′ fluorescein-labeled TERRA
Experimental: as §2

[8] = tested on: TERRA; experiment: CD spectroscopy of TERRA mixed with compound; conditions: 1:1 molar ratio, 150 mM KCl buffer
Experimental: All nucleic acids were dissolved in buffer containing 20 mM HEPES pH7.5, 150 mM salt (KCl or LiCl), 20% PEG8000 at the concentration of 10 μM for experiments. A J-815 spectrometer equipped with a PFD-425S Peltier cell holder was used to measure CD spectra at 4 °C between 200 and 340 nm to determine the secondary structure content of various oligo constructs. The molar ellipticity was calculated and the plot was made using Excel.

[9] = tested on: TERRA antisense (5'-fluorescein) (RNA, single strand) CCCUAACCCUAACCCUAACCCUAA; experiment: fluorescence polarization; conditions: 150 mM salt (KCl, NaCl or LiCl; which not stated); 20 mM HEPES pH 7.5, room temperature, tRNA competitor; dilutions from 50 μM compound
[10] = tested on: TRF2 binding to telomere DNA; experiment: DNA ChIP assay of TRF2 binding to telomere DNA in LOX cells; format: cell-based, human; conditions: 2 μM, 2 days
Experimental: The lysates were sonicated, cleared by centrifugation, and supernatants were diluted 10 fold into IP Buffer (0.01% SDS, 1.1% Triton X-100, 1.2mM EDTA, 16.7mM Tris pH 8.1, 167mM NaCl, protease inhibitors cocktail, 50U/ml SUPERase•in) for IP reaction with rabbit IgG (Santa Cruz Biotechnology) or rabbit polyclonal anti-TRF2 (Pocono Rabbit Farm) at 4 ° C overnight. Each immune complex was collected by Dynal A beads (Invitrogen), washed five times (1 ml wash, 10 mins each) in ChIP related wash buffer at 4 ° C, eluted by addition of 200µl Elution buffer (10mM Tris, pH 8.0, 5mM EDTA, 1% SDS, 50U/ml SUPERase.In) at 70 °C for 20 mins, and the elutes were placed at 70 °C for 2 hrs to reverse cross-linking. […]
DNA ChIP assays was performed as described previously 3 with minor modifications. Briefly, 1 x 10^7 LOX cells treated with indicated chemicals (2 µM) for 48 hrs were subject to ChIP analysis and immunoprecipitated DNA was assayed by DNA dot-blot using 32P-labeled (TTAGGG)4 or Alu probe. […]

[11] = molecular target: TERRA and TRF2 complex; experiment: FP inhibition assay, TRF2 GAR binding to TERRA; conditions: FP
Experimental: as §2

[12] = tested on: TeloDNA antisense (5'-fluorescein) (DNA, single strand) CCCTAACCCTAACCCTAACCCTAA; experiment: fluorescence polarization; conditions: 150 mM salt (KCl, NaCl or LiCl; which not stated); 20 mM HEPES pH 7.5, room temperature, tRNA competitor; dilutions from 50 μM compound
[13] = tested on: LOX cells; experiment: TIF assay (IF FISH, γH2AX or 53BP1 with telomere DNA) in LOX cells; format: cell-based, human; conditions: 2 μM, 3 days
Experimental: Mei et al, 2020 TERRA Requires TRF2 GAR Domain […]
as §1, with “Indirect immunofluorescence (IF) combined with fluorescence in situ hybridization (FISH) analysis for telomere dysfunction was performed as described 4 with some modifications. Briefly, cells grown on coverslips were fixed for 15 min in 2% paraformaldehyde/1x PBS at RT, followed by permeabilization for 10 min in 1x PBS/0.5% Triton X-100 at RT. After washing with 1x PBS, cells were incubated for 60 min in blocking solution (0.5% BSA, 0.2% fish gelatin, 0.1% Triton X-100,” for “100,”
Images were captured with a 100x lens on a Nikon E600 Upright microscope (Nikon […]
Instruments, Inc., Melville, NY) with ImagePro Plus software (Media Cybernetics, Silver Spring, MD) for image processing. Cells with > 5 53BP1/γH2AX foci co-localizing with telomere DNA foci were scored as positive for TIF. The quantification was generated from at least three independent Immuno-FISH experiments. […]
0.1 μg/mL DAPI in 1x PBS and slides were mounted with VectorShield (Vector Laboratories).
Images were taken with a 100x lens on a Nikon E600 Upright microscope (Nikon Instruments) using ImagePro Plus software (Media Cybernetics) for image processing. Statistical analysis was performed using two-tailed Student t Test.

[14] = tested on: TERRA (unlabelled) (RNA, G4) UUAGGGUUAGGGUUAGGGUUAGGG; experiment: fluorescence polarization, displacement of TRF2 GAR peptide; conditions: 150 mM salt (KCl, NaCl or LiCl; which not stated); 20 mM HEPES pH 7.5, room temperature; FITC-TRF2 GAR peptide 10 nM; 5 μM oligo; dilutions from 50 μM compound
[15] = molecular target: TeloDNA and TRF2 complex; experiment: FP inhibition assay, TRF2 GAR binding to TeloDNA
Experimental: as §2

[16] = tested on: TeloDNA (unlabelled) (DNA, G4) TTAGGGTTAGGGTTAGGGTTAGGG; experiment: fluorescence polarization, displacement of TRF2 GAR peptide; conditions: 150 mM salt (KCl, NaCl or LiCl; which not stated); 20 mM HEPES pH 7.5, room temperature; FITC-TRF2 GAR peptide 10 nM; 5 μM oligo; dilutions from 50 μM compound
[17] = 10 nM fluorescein-labeled probe, 3 independent experiments
[18] = 150 mM KCl, NaCl or LiCl (salt not specified), 20 mM HEPES, tRNA competitor added, 10 nM probe, apparent

## C[C@H]1c2cccc(O)c2C(=O)C2=C(O)[C@]3(O)C(=O)C(C(N)=O)=C(O)[C@@H](N(C)C)[C@@H]3[C@@H](O)[C@@H]21 [Dox, doxycycline]
[1]; doxycycline 1 µg/ml, 2 days, RNA dot blot
  effect of Dox treatment on TERRA: no effect on TERRA

## NCCOc1cc(C(=O)Nc2cc(OCCN)c3ccccc3n2)nc(C(=O)Nc2cc(OCCN)c3ccccc3n2)c1 [PDS, pyridostatin]
[2]
  telomere repeat DNA signals: to a lesser extent
[3]
  EC50: 0.199 µM
  binding to EBNA1 G4 RNA: high binding affinity
[4]; [17]
  EC50: 0.05 µM
[5]; [18]
  EC50: 0.66 µM
[6]; [18]
  EC50: 0.05 µM
[7]; [17]
  EC50: 0.66 µM
[1]; 2 μM, 3 days, RNA dot blot and Northern blot
  total TERRA levels relative to PP control: also reduced TERRA levels

## C=CC1=C(C)c2cc3[nH]c(cc4nc(cc5[nH]c(cc1n2)c(C)c5CCC(=O)O)C(CCC(=O)O)=C4C)c(C)c3C=C [PP, protoporphyrin IX]
[8]
  alteration of CD spectrum of TERRA at major peak (~260 nm): not BRACO-19 or PP altered the CD spectrum
[9]
  binding: no
[3]
  binding to EBNA1 G4 RNA: did not display any binding
[10]
  effect on TRF2 binding to telomere DNA: Neither NMM, PP, nor BRACO-19 had any significant effect
[11]
  IC50 for TRF2 GAR-TERRA: no measurable IC50
[4]
  binding activity for G4 TeloDNA: no binding activity
[5]
  binding: no
[12]
  binding: no
[6]
  binding: no
[13]
  level of γH2AX or 53BP1 associated telomere dysfunction-induced foci (TIFs): equivalent to background
[14]
  binding: no
[15]
  IC50 for TRF2 GAR-TeloDNA: no measurable IC50
[7]
  binding to TERRA: no measurable affinity
[16]
  binding: no
[1]; 2 μM, 3 days, Northern blot
  accumulation of TERRA as a shorter form: not observed

## C[n+]1cc(NC(=O)c2ccc3ccc4ccc(C(=O)Nc5cc6ccccc6[n+](C)c5)nc4c3n2)cc2ccccc21 [Phen-DC3]
[4]
  binding activity for G4 TeloDNA: only PDS bound
[5]
  binding: no
[6]
  binding: no
[7]
  binding to TERRA: only PDS bound

## COS(=O)(=O)[O-].Cc1cc2c3c([n+](C)c4ccc(F)cc4c3c1)-c1cc(F)ccc1N2C [RHPS4, acridinium methosulfate]
[4]
  binding activity for G4 TeloDNA: only PDS bound
[5]
  binding: no
[6]
  binding: no
[7]
  binding to TERRA: only PDS bound
